Experimental data as given in article PMC5715595 (British Journal of Pharmacology, 2017).

System: rabbit Purkinje fibres
Assay: Dofetilide-induced early after-depolarizations and triggered activity in rabbit Purkinje fibres
Assay type: cell-based
Details: for APD90: 0.25 Hz
Procedure: Following a lethal dose of pentobarbital, the hearts of male New Zealand rabbits were immediately excised and immersed in a modified Tyrode solution maintained at room temperature and previously saturated with O2/CO2 (95%/5%). A piece of ventricle containing free running Purkinje fibres was fixed to the silastic bottom of an organ bath perfused with the same solution maintained at 37°C for 30 min. The preparation was then superfused with the modified Tyrode solution and stimulated for 30 min at 2 Hz and then at 1 Hz (2 ms stimulus at twice threshold). […] After a stabilization period of at least 1 h, action potentials typical for Purkinje fibres were recorded. Action potential reproducibility and stability were confirmed during a further 20 min stabilization period. […] Each was applied for 20 min to enable steady state to be reached. In addition, the emergence of early after‐depolarizations (EADs), favoured by calcium loading during the late phase 2 of the prolonged action potential, is recognized as a better marker of pro‐arrhythmic potential than APD prolongation alone.

[1] = 10 μM pitolisant, dofetilide 0.1 μM

Cl.Clc1ccc(CCCOCCCN2CCCCC2)cc1 [pitolisant, 1‐{3‐[3‐(4‐chlorophenyl)propoxy]propyl}piperidine, hydrochloride]
effect on dofetilide-induced EADs (1 μM pitolisant, dofetilide 0.1 μM): no effect (in four out of four experiments) | inhibition of dofetilide-induced EADs (experiments) (3 μM pitolisant, dofetilide 0.1 μM): two out of three | suppression of dofetilide-induced EADs (experiments) [1]: all seven | suppression of dofetilide-induced spontaneous triggered activity (experiments) [1]: one out of one | APD90 (dofetilide 0.1 μM for 1 h10 and pitolisant 10 μM for 15 min): 275 ms | APD90 (dofetilide 0.1 μM for 55 min and pitolisant 1 μM for 20 min): 598 ms
